Experiments:
[1] = Physical stability study (visual inspection) of stabilizer solutions with vitamin B12 at ambient temperature; format: physicochemical
Protocol: Based on known injectable processes, with organometallics complex with EDTA, incorporation of vitamin B12 was screened by testing 3 possible different stabilizers. • Second Phase consists in evaluating the physical and chemical stability of the formulations which have been developed during precedent phase with the aim to select stable formulation prototypes.
Physical stability study was performed at 5° C., 25° C./60% RH and 40° C./75% RH: T0, T1, T2 and T3 months. A visual inspection was checked at different periods in order to control the absence of precipitation in the formulations. Assay of vitamin B12 was followed up on stability at 25° C./60% RH and 40° C./75% RH: T0, T3 and T6 months.
Then a quantity of stock solution of vitamin B12 was incorporated in the mix to have a final concentration of 0.15% w/v.
Physical stability study was performed on 5 and 10% w/v butaphosphan (with vitamin B12) solutions at ambient temperature: […]

[2] = Feasibility study: incorporation/solubilisation of stabilizers in the EDTA-complexed trace element solution
Description: Incorporation of vitamin B12 with different stabilizers was screened.
The following concentrations of butaphosphan have been tested:

SMILES	physical stability, appearance ([1]; 5 and 15% w/v glycine with vitamin B12, ambient temperature, T1 week)	physical stability, appearance ([1]; 5 and 15% w/v glycine with vitamin B12, ambient temperature, T2 weeks)	physical stability, appearance ([1]; 5 and 15% w/v glycine with vitamin B12, ambient temperature, T4 weeks)	physical stability, appearance ([1]; 5 and 10% w/v butaphosphan with vitamin B12 (0.15% w/v), ambient temperature, T1 week)	physical stability, appearance ([1]; 5 and 10% w/v butaphosphan with vitamin B12 (0.15% w/v), ambient temperature, T2 weeks)	physical stability, appearance ([1]; 5 and 10% w/v butaphosphan with vitamin B12 (0.15% w/v), ambient temperature, T4 weeks)	appearance of solution obtained ([2]; butaphosphan 5% w/v)	appearance of solution obtained ([2]; butaphosphan 10% w/v)
NCC(=O)O [glycine, Glycine]	dark clear solution with particle	dark clear solution with particle	dark clear solution with particle	–	–	–	–	–
CCCCNC(C)(C)[PH](=O)O [butaphosphan, (1-Butylamino-1-methyl-ethyl)-phosphinic acid]	–	–	–	dark clear solution	dark clear solution	dark clear solution	dark clear solution without particles	dark clear solution without particles
